Laboratory results: EP0326331B1, “Substituted quinolines and cinnolines” (Dow AgroSciences LLC, priority 1988, dated 1989)

Columns and labels:
Type in all cases: in vivo
[1] = test system: melon aphids (Aphis gossypii Glover); assay: Mite/insect screen, MA; conditions: Aphis gossypii, foliar, percent mortality, foliar spray on squash, read-out: MA RESULTS %; for mortality at 200 ppm: rate 200 ppm; for mortality at 400 ppm: rate 400 ppm
Summary of the method: (§1)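 Foliar spray to runoff (10 psi), 1 h drying; aqueous dilutions from acetone/alcohol emulsifier stock. Mortality (%) after standard exposure.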

[2] = test system: Pseudoperonospora cubensis (downy mildew); assay: Test 1 greenhouse foliar spray screen, downy mildew on squash; conditions: disease control rating, foliar spray on squash, 400 ppm (+++ at 100 ppm)
[3] = test system: Venturia inaequalis (apple scab); assay: Test 1 greenhouse foliar spray screen, apple scab on apple seedling; conditions: disease control rating, foliar spray on apple seedling, 400 ppm (+++ at 100 ppm)
[4] = test system: Twospotted spider mites (Tetranychus urticae Koch); assay: Mite/insect screen, SM; conditions: Tetranychus urticae, foliar, percent mortality, foliar spray on squash, read-out: SM RESULTS %; for mortality at 200 ppm: rate 200 ppm; for mortality at 400 ppm: rate 400 ppm
Summary of the method: as §1

[5] = test system: Cercospora beticola (leaf spot); assay: Test 1 greenhouse foliar spray screen, leaf spot on sugar beet; conditions: disease control rating, foliar spray on sugar beet, 400 ppm (+++ at 100 ppm)
[6] = test system: corn rootworm; assay: Mite/insect screen, CRW; conditions: percent mortality, read-out: CRW RESULTS %; for mortality at 12 ppm: CRW rate 12.00 ppm; for mortality at 24 ppm: CRW rate 24.00 ppm
Summary of the method: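 Following dissolution in equal parts acetone and alcohol with 23 g/L and 13 g/L emulsifier blends and dilution with water, test solutions were scored for percent mortality at the end of standard exposures.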

[7] = test system: Botrytis cinerea (gray mold); assay: Test 1 greenhouse foliar spray screen, gray mold on grape berries; conditions: disease control rating, spray on grape berries, 400 ppm (+++ at 100 ppm)
[8] = test system: southern armyworm (Spodopetra eridania Cramer); assay: Mite/insect screen, SAW; conditions: Spodoptera eridania, foliar, percent mortality, foliar spray on squash, read-out: SAW RESULTS %; for mortality at 200 ppm: rate 200 ppm; for mortality at 400 ppm: rate 400 ppm
Summary of the method: as §1

[9] = test system: Erysiphe graminis tritici (powdery mildew); assay: Test 1 greenhouse foliar spray screen, powdery mildew on wheat; conditions: disease control rating, foliar spray on wheat, 400 ppm (+++ at 100 ppm)
[10] = test system: Pyricularia oryzae (rice blast); assay: whole plant or invertebrate; conditions: disease control rating, foliar spray on rice, 400 ppm (+++ at 100 ppm)
[11] = test system: Puccinia recondita tritici (leaf rust); assay: Test 1 greenhouse foliar spray screen, leaf rust on wheat; conditions: disease control rating, foliar spray on wheat, 400 ppm (+++ at 100 ppm)
[12] = test system: Septoria tritici (leaf blotch); assay: Test 1 greenhouse foliar spray screen, leaf blotch on wheat; conditions: disease control rating, foliar spray on wheat, 400 ppm (+++ at 100 ppm)

Structure (SMILES)	mortality at 200 ppm [1]	mortality at 400 ppm [1]	DOWN MDEW [2]	APPL SCAB [3]	mortality at 200 ppm [4]	mortality at 400 ppm [4]	LEAF SPOT [5]	mortality at 12 ppm [6]	mortality at 24 ppm [6]	GRAY MOLD [7]	mortality at 200 ppm [8]	mortality at 400 ppm [8]	POWD MDEW [9]	RICE BLAST [10]	LEAF RUST [11]	LEAF BLOT [12]
Clc1ccc2c(NCCc3ccc4ccccc4c3)ccnc2c1 [Example 166, 7-chloro-N-[2-(2-naphthyl)ethyl]-4-quinolinamine]	0%	0%	+++ (90-100% control at 100 ppm)	- (0-19% control at 400 ppm)	0%	0%	- (0-19% control at 400 ppm)	0%	0%	- (0-19% control at 400 ppm)	0%	0%	+ (20-89% control at 400 ppm)	+ (20-89% control at 400 ppm)	+ (20-89% control at 400 ppm)	+ (20-89% control at 400 ppm)
Fc1ccc2nccc(NCCC3=CCCCC3)c2c1 [Example 168, N-[2-(1-cyclohexenyl)ethyl]-6-fluoro-4-quinolinamine]	0%	0%	+++ (90-100% control at 100 ppm)	- (0-19% control at 400 ppm)	0%	0%	- (0-19% control at 400 ppm)	0%	0%	- (0-19% control at 400 ppm)	0%	0%	+ (20-89% control at 400 ppm)	++ (90-100% control at 400 ppm)	++ (90-100% control at 400 ppm)	- (0-19% control at 400 ppm)
FC(F)(F)c1ccc2c(NCCc3ccc4ccccc4c3)ccnc2c1 [Example 169, N-[2-(2-naphthyl)ethyl]-7-(trifluoromethyl)-4-quinolinamine]	0%	0%	++ (90-100% control at 400 ppm)	- (0-19% control at 400 ppm)	0%	0%	- (0-19% control at 400 ppm)	0%	0%	- (0-19% control at 400 ppm)	0%	0%	+ (20-89% control at 400 ppm)	++ (90-100% control at 400 ppm)	+ (20-89% control at 400 ppm)	- (0-19% control at 400 ppm)
CC(Cc1cccs1)Nc1ccnc2c(F)cccc12 (stereo not drawn) [Example 170, 8-fluoro-N-[1-methyl-2-(2-thienyl)ethyl]-4-quinolinamine]	0%		+ (20-89% control at 400 ppm)	- (0-19% control at 400 ppm)	0%		- (0-19% control at 400 ppm)	0%		- (0-19% control at 400 ppm)	0%		+ (20-89% control at 400 ppm)	+ (20-89% control at 400 ppm)	++ (90-100% control at 400 ppm)	- (0-19% control at 400 ppm)
CC(Cc1cccs1)Nc1ccnc2ccccc12 (stereo not drawn) [Example 171, N-[1-methyl-2-(2-thienyl)ethyl]-4-quinolinamine]	0%		+ (20-89% control at 400 ppm)	- (0-19% control at 400 ppm)	0%		+ (20-89% control at 400 ppm)	0%		- (0-19% control at 400 ppm)	0%		- (0-19% control at 400 ppm)	+ (20-89% control at 400 ppm)	+ (20-89% control at 400 ppm)	+ (20-89% control at 400 ppm)
Clc1cccc2c(NCCc3cccs3)ccnc12 [Example 172, 8-chloro-N-[2-(2-thienyl)ethyl]-4-quinolinamine]	0%		+ (20-89% control at 400 ppm)	- (0-19% control at 400 ppm)	0%		- (0-19% control at 400 ppm)	0%		- (0-19% control at 400 ppm)	0%		+ (20-89% control at 400 ppm)	+ (20-89% control at 400 ppm)	+ (20-89% control at 400 ppm)	- (0-19% control at 400 ppm)
Fc1cccc2c(NCCC3COc4ccccc4O3)ccnc12 (stereo not drawn) [Example 174, N-[2-(2,3-dihydro-1,4-benzodioxin-2-yl)ethyl]-8-fluoro-4-quinolinamine]	0%		+++ (90-100% control at 100 ppm)	- (0-19% control at 400 ppm)	0%		- (0-19% control at 400 ppm)	0%		- (0-19% control at 400 ppm)	0%		+ (20-89% control at 400 ppm)	+ (20-89% control at 400 ppm)	++ (90-100% control at 400 ppm)	+ (20-89% control at 400 ppm)
Fc1cccc2c(NCCc3ccsc3)ccnc12 [Example 175, 8-fluoro-N-[2-(3-thienyl)ethyl]-4-quinolinamine]	0%		+++ (90-100% control at 100 ppm)	- (0-19% control at 400 ppm)	0%		- (0-19% control at 400 ppm)	0%		- (0-19% control at 400 ppm)	0%		+ (20-89% control at 400 ppm)	+ (20-89% control at 400 ppm)	+++ (90-100% control at 100 ppm)	+ (20-89% control at 400 ppm)
Fc1cccc2c(NCCc3c[nH]c4ccccc34)ccnc12 [Example 176, 8-fluoro-N-[2-(1H-indol-3-yl)ethyl]-4-quinolinamine]	0%		++ (90-100% control at 400 ppm)	- (0-19% control at 400 ppm)	0%		+ (20-89% control at 400 ppm)	0%		- (0-19% control at 400 ppm)	0%		+ (20-89% control at 400 ppm)	+ (20-89% control at 400 ppm)	+ (20-89% control at 400 ppm)	- (0-19% control at 400 ppm)
